This note sets out measurements from patent US9822137B2, “Phosphonucleosides useful in the treatment of viral disorders” (UNIVERSITY COLLEGE CORK, priority 2012, dated 2017).

Counter-ions that a name gives are not always drawn. Like-named read-outs stand apart in the source and are kept apart here.

In general, melting point refers to the temperature of the solid-liquid transition.

Data set [1] addresses HIV-1 reverse transcriptase (Human immunodeficiency virus type 1 group M subtype B, UniProt P04585). Nature of the data set: cell-free HIV-1 RT assay with artificial homopolymeric template/primer and [3H]dNTP. Format: biochemical. As to conditions: for inhibition of incorporation of [3H]dATP in poly rU/oligo dA / inhibition of incorporation of [3H]dCTP in poly rI/oligo dC: 11a and 11b at 200 μg/mL. The procedure: To prepare the template/primers for the RT experiments, 0.15 mM poly(U), poly(A), and poly(I) were mixed with an equal volume of 0.0375 mM oligo(dA), oligo(dT), and oligo(dC), respectively. The final concentrations of the templates in the RT reaction mixture were 0.015 mM. The reaction mixture (50 μl) contained 50 mM Tris.HCl (pH 7.8), 5 mM dithiothreitol, 300 mM glutathione, 500 μM EDTA, 150 mM KCl, 5 mM MgCl2, 1.25 μg of bovine serum albumin, an appropriate concentration of labeled (tritiated) substrate dTTP, dCTP, or dATP (2 μCi/assay), a fixed concentration of the template/primer poly(A).oligo(dT) (0.015 mM), poly(I).oligo(dC) (0.015 mM), and poly(U).oligo(dA) (0.015 mM), 0.06% Triton X-100, 10 μl of inhibitor solution (containing various concentrations of the compounds), and 1 μl of the RT preparation. The reaction mixtures were incubated at 37° C. for 30 min, at which time 100 μl of yeast RNA (1 mg/ml) and 1 ml of Na4P2O7 (0.02 M) in trichloroacetic acid (5% v/v) were added. The solutions were kept on ice for 30 min, after which the acid-insoluble material was washed and analyzed for radioactivity.

Data set [2] is described as follows: chemical stability on storage / in solution. The format is physicochemical.
[3] abbreviates: substrate [3H]dATP, template/primer poly rU.oligo dA, read-out: IC50, HIV-RT catalysed incorporation of [3H]dATP / polyrU.dA (converted).
The mark [4] stands for this setting: substrate [3H]dCTP, template/primer poly rI.oligo dC, read-out: IC50, HIV-RT catalysed incorporation of [3H]dCTP / polyrI.dC (converted).
[5] abbreviates: substrate [3H]dTTP, template/primer poly rA.oligo dT, read-out: IC50, HIV-RT catalysed incorporation of [3H]dTTP / polyrA.dT (converted).

As to `Cc1cn([C@H]2CC[C@@H](OC(C(=O)O)P(=O)(O)O)C2)c(=O)[nH]c1=O` (single isomer, unassigned; (+)) [(+)-11a], the IC50 is 101 µM in data set [1] (setting [3]), above 574 µM in data set [1] (setting [4]) and 37.3 µM in data set [1] (setting [5]).

Regarding `COC(=O)C(O[C@H]1C=C[C@@H](n2ccc(N)nc2=O)C1)P(=O)(OC)OC` (relative stereo) [Compound 24c, cis-1-{4-[(Methoxycarbonyl)dimethylphosphonomethoxy]cyclopent-2-en-1-yl}cytosine], in data set [2] (36 hours at room temperature), the “stability in deuterated chloroform” value was “Significant decomposition”.

`O=C(O)C(O[C@H]1CC[C@@H](n2ccc(=O)[nH]c2=O)C1)P(=O)(O)O` (relative stereo) [Compound 11b, cis-1-{4-[Carboxy(phosphono)methoxy]cyclopentan-1-yl}uracil]: in data set [1], the “inhibition of incorporation of [3H]dATP in poly rU/oligo dA” value is reported as “no marked, if any inhibition”. Further, the “inhibition of incorporation of [3H]dCTP in poly rI/oligo dC” value (shortened to “inhibition of incorporation of [3H]dCTP”) in data set [1] was “no marked, if any inhibition”. Further, the IC50 in data set [1] (setting [3]) was 221 µM; in data set [1] (setting [4]) it was above 598 µM; in data set [1] (setting [5]), 3.89 µM.

`Cc1cn([C@H]2C[C@H](N=[N+]=[N-])[C@@H](COP(=O)(O)OP(=O)(O)OP(=O)(O)O)O2)c(=O)[nH]c1=O` [AZT-TP, reference compound]: the “IC50, HIV-RT catalysed incorporation of [3H]dTTP / polyrA.dT” value in data set [1] (substrate [3H]dTTP, template/primer poly rA.oligo dT) turned out to be 0.035 ± 0.016 µg/mL.

For `Nc1ncnc2c1ncn2[C@H]1CC[C@@H](OC(C(=O)O)P(=O)(O)O)C1` (single isomer, unassigned; (+)) (as salt: ammonium) [(+)-11d], the melting point is 234 to 239 °C.

`COC(=O)C(O[C@H]1CC[C@@H](n2cc(C)c(=O)[nH]c2=O)C1)P(=O)(OC)OC` (single isomer, unassigned; (+)) [(+)26a] showed a melting point of 129 to 130 °C.

For `Cc1cn([C@@H]2CC[C@H](OC(C(=O)O)P(=O)(O)O)C2)c(=O)[nH]c1=O` (single isomer, unassigned; (-)) [(−)-11a], the IC50 in data set [1] (IC50, HIV-RT catalysed incorporation of [3H]dATP / polyrU.dA, substrate [3H]dATP, template/primer poly rU.oligo dA) is 167 µM; in data set [1] (IC50, HIV-RT catalysed incorporation of [3H]dCTP / polyrI.dC, substrate [3H]dCTP, template/primer poly rI.oligo dC), above 574 µM; in data set [1] (IC50, HIV-RT catalysed incorporation of [3H]dTTP / polyrA.dT, substrate [3H]dTTP, template/primer poly rA.oligo dT), 0.431 µM. Moreover, the “inhibition of HIV-1-RT-catalysed incorporation of [3H]dTTP in poly rA/oligo dT” value in data set [1] is recorded as “potent inhibitory activity”.

In the case of `O=C(O)C(O[C@H]1CC[C@@H](n2ccc(=O)[nH]c2=O)C1)P(=O)(O)O` (single isomer, unassigned; (-)) [(−)-11b], the “inhibition of HIV-1-RT-catalysed incorporation of [3H]dTTP in poly rA/oligo dT” value in data set [1] is recorded as “potent inhibitory activity”. The IC50 is 233 µM in data set [1] (setting [3]), above 598 µM in data set [1] (setting [4]) and 3.29 µM in data set [1] (setting [5]).

For the compound `Nc1ncnc2c1ncn2[C@H]1CC[C@@H](COP(=O)(O)OP(=O)(O)OP(=O)(O)O)O1` [ddATP, reference compound], the “IC50, HIV-RT catalysed incorporation of [3H]dATP / polyrU.dA” value in data set [1] (substrate [3H]dATP, template/primer poly rU.oligo dA) worked out at 0.55 ± 0.09 µg/mL.

Compound `Cc1cn([C@@H]2CC[C@H](OC(C(=O)O)P(=O)(O)O)C2)c(=O)[nH]c1=O` (single isomer, unassigned; (-)) (as salt: ammonium) [(−)-11a] showed a melting point of 229 to 230 °C.

On to `COC(=O)C(O[C@H]1CC[C@@H](n2ccc(N)nc2=O)C1)P(=O)(OC)OC` (relative stereo) [Compound 26c, cis-1-{4-[(Methoxycarbonyl)dimethylphosphonomethoxy]cyclopentan-1-yl}cytosine], for which the “stability in deuterated chloroform” value in data set [2] (16 hours at room temperature) is listed as “Significant decomposition”.

`Nc1ncnc2c1ncn2[C@@H]1CC[C@H](OC(C(=O)O)P(=O)(O)O)C1` (single isomer, unassigned; (-)) [(−)-11d]: the values for the IC50 in data set [1] (setting [3]), in data set [1] (setting [4]) and in data set [1] (setting [5]) were 0.202 µM, above 560 µM and above 560 µM, respectively.

With `Cc1cn([C@@H]2CC[C@H](OC(C(=O)O)P(=O)(O)O)C2)c(=O)[nH]c1=O` (relative stereo) [Compound 11a, cis-1-{4-[Carboxy(phosphono)methoxy]cyclopentan-1-yl}thymine], in data set [1], the “inhibition of incorporation of [3H]dATP in poly rU/oligo dA” value is reported as “no marked, if any inhibition”. Besides, the “inhibition of incorporation of [3H]dCTP” value in data set [1] is “no marked, if any inhibition”. Besides, the IC50 in data set [1] (setting [3]) was 307 µM; in data set [1] (setting [4]), above 574 µM; in data set [1] (setting [5]), 0.431 µM.

Consider `Cc1cn([C@H]2CC[C@@H](OC(C(=O)O)P(=O)(O)O)C2)c(=O)[nH]c1=O` (single isomer, unassigned; (+)) (as salt: ammonium) [(+)-11a], for which the melting point lay within 225 to 227 °C.

In the case of `Nc1ncnc2c1ncn2[C@@H]1CC[C@H](OC(C(=O)O)P(=O)(O)O)C1` (single isomer, unassigned; (-)) (as salt: ammonium) [(−)-11d], the melting point lay in the range of 237 to 241 °C.

Take `COC(=O)C(O[C@H]1CC[C@@H](n2ccc(=O)[nH]c2=O)C1)P(=O)(OC)OC` (relative stereo) [Compound 26b, cis-1-{4-[(methoxycarbonyl)dimethylphosphonomethoxy]cyclopentan-1-yl}uracil]: the “stability on storage at room temperature” value in data set [2] (room temperature, extended periods, neat, solid or in solution) is recorded as “no noticeable decomposition”. Besides, the “purity by 1H NMR of aged sample” value in data set [2] (sample approximately 2 years old, stored at room temperature) was found to be 95%.

For `COC(=O)C(O[C@@H]1CC[C@H](n2cc(C)c(=O)[nH]c2=O)C1)P(=O)(OC)OC` (single isomer, unassigned; (-)) [(−)26a], the melting point is 133 to 135 °C.

With `O=C(O)C(O[C@@H]1CC[C@H](n2ccc(=O)[nH]c2=O)C1)P(=O)(O)O` (single isomer, unassigned; (+)) [(+)-11b], the IC50 was 168 µM in data set [1] (setting [3]), above 598 µM in data set [1] (setting [4]) and 120 µM in data set [1] (setting [5]).

On to `Nc1ncnc2c1ncn2[C@@H]1CC[C@H](OC(C(=O)O)P(=O)(O)O)C1` (relative stereo) (as salt: ammonium) [Compound 11d, cis-9-{4-[Carboxy(phosphono)methoxy]cyclopentan-1-yl}adenine], for which the melting point fell in the range of 236 to 240 °C.

Take `Nc1ccn([C@H]2CC[C@@H](COP(=O)(O)OP(=O)(O)OP(=O)(O)O)O2)c(=O)n1` [ddCTP, reference compound]: the “IC50, HIV-RT catalysed incorporation of [3H]dCTP / polyrI.dC” value in data set [1] (substrate [3H]dCTP, template/primer poly rI.oligo dC) stood at 5.0 ± 0.4 µg/mL.

As to `Nc1ncnc2c1ncn2[C@H]1CC[C@@H](OC(C(=O)O)P(=O)(O)O)C1` (single isomer, unassigned; (+)) [(+)-11d], the IC50 in data set [1] (setting [3]) is 33.6 µM; in data set [1] (setting [4]) it was above 560 µM; in data set [1] (setting [5]) it was 487 µM.

Take `COC(=O)C(O[C@H]1CC[C@@H](n2cc(C)c(=O)[nH]c2=O)C1)P(=O)(OC)OC` (relative stereo) [26a]: the melting point lay within 130 to 133 °C.

`Cc1cn([C@@H]2CC[C@H](OC(C(=O)O)P(=O)(O)O)C2)c(=O)[nH]c1=O` (relative stereo) (as salt: ammonium) [Compound 11a, cis-1-{4-[Carboxy(phosphono)methoxy]cyclopentan-1-yl}thymine] displayed a melting point of 228 to 230 °C.

For `Nc1ccn([C@@H]2CC[C@H](OC(C(=O)O)P(=O)(O)O)C2)c(=O)n1` (single isomer, unassigned; (-)) [(−)-11c], the “inhibition of incorporation of [3H]dCTP” value in data set [1] is on record as “strong inhibition”. In addition, the IC50 in data set [1] (setting [3]) was 51 µM; in data set [1] (setting [4]), 4.5 µM; in data set [1] (setting [5]), 180 µM.

Consider `O=C(O)C(OC1CCC(n2cc(F)c(=O)[nH]c2=O)C1)P(=O)(O)O` (stereo not drawn) (as salt: ammonium) [Compound 41, 2-((3-(5-fluoro-2,4-dioxo-3,4-dihydropyrimidin-1(2H)-yl)cyclopentyl)oxy)-2-phosphonoacetic acid], for which the melting point stood at 243 °C.

For `Nc1ccn([C@H]2CC[C@@H](OC(C(=O)O)P(=O)(O)O)C2)c(=O)n1` (single isomer, unassigned; (+)) [(+)-11c], the melting point was above 250 °C. Besides, the IC50 in data set [1] (setting [3]) is 54 µM. The IC50 in data set [1] (setting [4]) is 402 µM. In addition, in data set [1] (setting [5]), the IC50 was 23.4 µM.

Take `COC(=O)C(O[C@H]1CC[C@@H](n2cnc3nc(N)nc(Cl)c32)C1)P(=O)(OC)OC` (relative stereo) [Compound N-7-26e, cis-2-Amino-7-{4-[(methoxycarbonyl)dimethylphosphonornethoxy]cyclopentan-1-yl}-6-chloropurine]: the “stability in solution” value in data set [2] (within 4 days in solution) is listed as “significant decomposition”.

In turn, `Nc1ccn([C@@H]2CC[C@H](OC(C(=O)O)P(=O)(O)O)C2)c(=O)n1` (relative stereo) [Compound 11c, cis-1-{4-[Carboxy(phosphono)methoxy]cyclopentan-1-yl}cytosine] had a melting point above 250 °C. Also, the IC50 in data set [1] (setting [3]) is 108 µM. For the same compound, the IC50 in data set [1] (setting [4]) was 4.8 µM. For the same compound, the IC50 in data set [1] (setting [5]) is 231 µM.
